Common to all, as to type: binding
The target of one assay is T1, FGF-R1C ECD (Homo sapiens, UniProt P11362).
T1 sequence (P11362 22-376 limits assumed): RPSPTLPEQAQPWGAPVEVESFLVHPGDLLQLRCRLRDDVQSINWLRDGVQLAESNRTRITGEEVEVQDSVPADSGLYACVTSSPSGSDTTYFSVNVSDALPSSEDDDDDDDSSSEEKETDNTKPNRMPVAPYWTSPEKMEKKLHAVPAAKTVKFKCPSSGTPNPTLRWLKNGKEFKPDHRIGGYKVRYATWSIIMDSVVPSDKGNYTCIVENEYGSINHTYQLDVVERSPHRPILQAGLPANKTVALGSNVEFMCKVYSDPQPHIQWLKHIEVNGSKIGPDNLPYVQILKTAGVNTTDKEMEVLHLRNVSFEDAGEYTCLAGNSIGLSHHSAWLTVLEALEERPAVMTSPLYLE
The assay can be described thus: biochemical. Set-up: DNA constructs for the extracellular domain (ECD) of human FGF-; HPC4 (C); made in house; host or cells: HEK 293-6E. An outline of the steps:
(§1)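 BLI, streptavidin sensors loaded with biotinylated receptor ECD. Single-point: ~1 μM crude peptide, PBS pH7.4/0.05% Tween-20/0.01% BSA; association then dissociation in buffer. KD corrected for UPLC-CAD-determined concentration.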

The next assay concerns the target T2, FGF-R3C ECD (Homo sapiens, UniProt P22607).
T2 sequence (P22607 23-375 limits assumed): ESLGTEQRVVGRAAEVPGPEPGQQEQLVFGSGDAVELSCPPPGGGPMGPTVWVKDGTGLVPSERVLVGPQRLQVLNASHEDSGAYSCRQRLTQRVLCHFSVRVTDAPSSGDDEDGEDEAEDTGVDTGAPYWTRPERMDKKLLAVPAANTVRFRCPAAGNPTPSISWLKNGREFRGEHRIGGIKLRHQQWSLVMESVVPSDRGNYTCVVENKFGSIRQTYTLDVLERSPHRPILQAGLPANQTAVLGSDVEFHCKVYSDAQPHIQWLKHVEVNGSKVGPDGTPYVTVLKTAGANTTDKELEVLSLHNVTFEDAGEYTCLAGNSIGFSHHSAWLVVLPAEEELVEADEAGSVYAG
Briefly: biochemical. On the set-up: DNA constructs for the extracellular domain (ECD) of human FGF-; HPC4 (C); made in house; host or cells: HEK 293-6E. An outline of the steps:
as §1

In a further assay the target is T3, FGF-R4 ECD (Homo sapiens, UniProt P22455).
T3 construct: DNA constructs for the extracellular domain (ECD) of human FGF-; HPC4 (C); made in house; host or cells: HEK 293-6E
T3 sequence (P22455 22-369 limits assumed): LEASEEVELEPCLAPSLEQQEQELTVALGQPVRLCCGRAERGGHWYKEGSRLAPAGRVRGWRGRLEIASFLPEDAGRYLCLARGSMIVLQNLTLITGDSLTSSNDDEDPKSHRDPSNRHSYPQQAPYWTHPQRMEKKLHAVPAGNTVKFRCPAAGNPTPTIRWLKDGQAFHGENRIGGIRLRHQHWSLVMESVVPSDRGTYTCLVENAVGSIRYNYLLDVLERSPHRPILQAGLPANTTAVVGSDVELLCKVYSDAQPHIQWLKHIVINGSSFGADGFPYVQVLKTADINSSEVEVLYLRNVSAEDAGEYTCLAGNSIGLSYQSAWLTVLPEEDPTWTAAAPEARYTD
Briefly: single concentration BLI of crude peptides. The following applies: read-out: KD (4). An outline of the steps: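 Streptavidin biosensors carrying biotinylated FGF receptor ECD were immersed in peptide (~1 μM for crude single-point runs, a concentration series for purified peptides) and then in peptide-free buffer. KD was obtained by fitting the BLI association and dissociation curves.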

The mark [1] stands for this setting: crude T18 selection 1 (1:1:1) peptides, single concentration BLI (Table S4).
Where [2] appears, read: crude NNK peptides, single concentration BLI (Table S3).

Where two headings read alike, the source gives them in different places. Positions of bridges follow the written chain, without caps; N, C: chain ends. Residues, ends and D or L forms follow the SMILES beside them.

Consider `CSCC[C@H](NC(C)=O)C(=O)N[C@H]1CSSC[C@@H](C(=O)NCC(=O)N[C@@H](CO)C(=O)NCC(=O)N[C@@H](CO)C(=O)N[C@@H](CC(=O)O)C(=O)N[C@@H](Cc2ccc(O)cc2)C(=O)N[C@@H](CCCCN)C(=O)N[C@@H](CC(=O)O)C(=O)N[C@@H](CC(=O)O)C(=O)N[C@@H](CC(=O)O)C(=O)N[C@@H](CC(=O)O)C(=O)N[C@@H](CCCCN)C(N)=O)NC(=O)[C@H](Cc2ccc(O)cc2)NC(=O)[C@H](Cc2ccccc2)NC(=O)[C@H](Cc2c[nH]c3ccccc23)NC(=O)[C@H](CCCCN)NC(=O)[C@H](Cc2ccc(O)cc2)NC(=O)[C@H](Cc2c[nH]c3ccccc23)NC(=O)[C@H](CCC(N)=O)NC(=O)[C@H](CC(C)C)NC(=O)[C@H]([C@@H](C)O)NC(=O)[C@H](C)NC(=O)[C@H](Cc2ccc(O)cc2)NC(=O)[C@H](CCCCN)NC1=O` (Ac-MCKYATLQWYKWFYCGSGSDYKDDDDK-NH2; disulfide 2-15), for which the dissociation constant (Kd) – broadly, the equilibrium constant for the complex coming apart – on FGF-R1C ECD was determined as 0.114 µM; on FGF-R3C ECD, 7.34 µM; at FGF-R4 ECD (setting [1]) it was 0.063 µM.

Turning to `CSCC[C@H](NC(C)=O)C(=O)N[C@H]1CSSC[C@@H](C(=O)NCC(=O)N[C@@H](CO)C(=O)NCC(=O)N[C@@H](CO)C(=O)N[C@@H](CC(=O)O)C(=O)N[C@@H](Cc2ccc(O)cc2)C(=O)N[C@@H](CCCCN)C(=O)N[C@@H](CC(=O)O)C(=O)N[C@@H](CC(=O)O)C(=O)N[C@@H](CC(=O)O)C(=O)N[C@@H](CC(=O)O)C(=O)N[C@@H](CCCCN)C(N)=O)NC(=O)[C@H](Cc2c[nH]c3ccccc23)NC(=O)[C@H](CC(C)C)NC(=O)[C@H](CCCNC(=N)N)NC(=O)[C@H](Cc2ccc(O)cc2)NC(=O)[C@H](CC(C)C)NC(=O)[C@H](Cc2c[nH]c3ccccc23)NC(=O)[C@H](CC(C)C)NC(=O)[C@H](CC(=O)O)NC(=O)[C@H](CCCCN)NC(=O)[C@H](CO)NC(=O)[C@H](Cc2ccc(O)cc2)NC(=O)[C@H](CCCCN)NC1=O` (Ac-MCKYSKDLWLYRLWCGSGSDYKDDDDK-NH2; disulfide 2-15), the dissociation constant (Kd) was greater than 10 µM at FGF-R1C ECD, greater than 10 µM at FGF-R3C ECD and 0.002 µM at FGF-R4 ECD (setting [1]).

In the case of `CC[C@H](C)[C@@H]1NC(=O)[C@H](CO)NC(=O)[C@H]([C@@H](C)CC)NC(=O)[C@H](CC(C)C)NC(=O)[C@@H](NC(=O)[C@H](CCSC)NC(C)=O)CSSC[C@@H](C(=O)NCC(=O)N[C@@H](CO)C(=O)NCC(=O)N[C@@H](CO)C(=O)N[C@@H](CC(=O)O)C(=O)N[C@@H](Cc2ccc(O)cc2)C(=O)N[C@@H](CCCCN)C(=O)N[C@@H](CC(=O)O)C(=O)N[C@@H](CC(=O)O)C(=O)N[C@@H](CC(=O)O)C(=O)N[C@@H](CC(=O)O)C(=O)N[C@@H](CCCCN)C(N)=O)NC(=O)[C@H](Cc2c[nH]cn2)NC(=O)[C@H](CCCCN)NC(=O)[C@H](CC(C)C)NC(=O)[C@H](C(C)C)NC(=O)[C@H](CCCCN)NC(=O)[C@H](Cc2ccc(O)cc2)NC1=O` (Ac-MCLISIYKVLKHCGSGSDYKDDDDK-NH2; disulfide 2-13), the Kd on FGF-R1C ECD, at FGF-R3C ECD and at FGF-R4 ECD (setting [2]) was greater than 10 µM each time.

On to `CSCC[C@H](NC(C)=O)C(=O)N[C@H]1CSSC[C@@H](C(=O)NCC(=O)N[C@@H](CO)C(=O)NCC(=O)N[C@@H](CO)C(=O)N[C@@H](CC(=O)O)C(=O)N[C@@H](Cc2ccc(O)cc2)C(=O)N[C@@H](CCCCN)C(=O)N[C@@H](CC(=O)O)C(=O)N[C@@H](CC(=O)O)C(=O)N[C@@H](CC(=O)O)C(=O)N[C@@H](CC(=O)O)C(=O)N[C@@H](CCCCN)C(N)=O)NC(=O)[C@H](Cc2c[nH]cn2)NC(=O)[C@H](Cc2c[nH]c3ccccc23)NC(=O)[C@H](Cc2ccc(O)cc2)NC(=O)[C@@H]2CCCN2C(=O)[C@H](CCC(=O)O)NC(=O)[C@H](Cc2ccc(O)cc2)NC(=O)[C@H](CC(C)C)NC(=O)[C@H](Cc2c[nH]cn2)NC(=O)[C@H](CCCNC(=N)N)NC(=O)[C@H](CC(C)C)NC1=O` (Ac-MCLRHLYEPYWHCGSGSDYKDDDDK-NH2; disulfide 2-13), for which the Kd on FGF-R1C ECD, at FGF-R3C ECD and at FGF-R4 ECD (setting [1]) was greater than 10 µM in each case.

Regarding `CC[C@H](C)[C@@H]1NC(=O)[C@H](CCCCN)NC(=O)[C@H](Cc2ccc(O)cc2)NC(=O)[C@H](Cc2ccc(O)cc2)NC(=O)[C@H](Cc2c[nH]cn2)NC(=O)[C@H](Cc2c[nH]c3ccccc23)NC(=O)[C@H](CC(C)C)NC(=O)[C@@H](NC(=O)[C@H](CCSC)NC(C)=O)CSSC[C@@H](C(=O)NCC(=O)N[C@@H](CO)C(=O)NCC(=O)N[C@@H](CO)C(=O)N[C@@H](CC(=O)O)C(=O)N[C@@H](Cc2ccc(O)cc2)C(=O)N[C@@H](CCCCN)C(=O)N[C@@H](CC(=O)O)C(=O)N[C@@H](CC(=O)O)C(=O)N[C@@H](CC(=O)O)C(=O)N[C@@H](CC(=O)O)C(=O)N[C@@H](CCCCN)C(N)=O)NC(=O)[C@H](CCCCN)NC(=O)[C@H](CCC(N)=O)NC(=O)[C@H](CCCNC(=N)N)NC(=O)[C@H](CCCNC(=N)N)NC(=O)[C@H](Cc2ccccc2)NC1=O` (Ac-MCLWHYYKIFRRQKCGSGSDYKDDDDK-NH2; disulfide 2-15), the figures for the Kd on FGF-R1C ECD, at FGF-R3C ECD and at FGF-R4 ECD (setting [1]) were 0.096 µM, greater than 10 µM and 0.008 µM, respectively.

For the molecule `CSCC[C@H](NC(C)=O)C(=O)N[C@H]1CSSC[C@@H](C(=O)NCC(=O)N[C@@H](CO)C(=O)NCC(=O)N[C@@H](CO)C(=O)N[C@@H](CC(=O)O)C(=O)N[C@@H](Cc2ccc(O)cc2)C(=O)N[C@@H](CCCCN)C(=O)N[C@@H](CC(=O)O)C(=O)N[C@@H](CC(=O)O)C(=O)N[C@@H](CC(=O)O)C(=O)N[C@@H](CC(=O)O)C(=O)N[C@@H](CCCCN)C(N)=O)NC(=O)[C@H](CCC(=O)O)NC(=O)[C@H](CCCNC(=N)N)NC(=O)[C@H](CCCNC(=N)N)NC(=O)[C@H](Cc2c[nH]cn2)NC(=O)[C@H](Cc2ccccc2)NC(=O)[C@H](CCC(N)=O)NC(=O)[C@H](CC(C)C)NC(=O)[C@H](Cc2ccc(O)cc2)NC(=O)[C@H](Cc2ccc(O)cc2)NC(=O)[C@H](Cc2c[nH]c3ccccc23)NC(=O)[C@H](CC(C)C)NC1=O` (Ac-MCLWYYLQFHRRECGSGSDYKDDDDK-NH2; disulfide 2-14), the Kd is 0.021 µM at FGF-R1C ECD, greater than 10 µM on FGF-R3C ECD and 0.005 µM on FGF-R4 ECD (setting [1]).

`CC[C@H](C)[C@@H]1NC(=O)[C@H](CCCCN)NC(=O)[C@H](Cc2ccc(O)cc2)NC(=O)[C@H](CC(C)C)NC(=O)[C@H]([C@@H](C)CC)NC(=O)[C@H]([C@@H](C)CC)NC(=O)[C@H](CC(N)=O)NC(=O)[C@@H](NC(=O)[C@H](CCSC)NC(C)=O)CSSC[C@@H](C(=O)NCC(=O)N[C@@H](CO)C(=O)NCC(=O)N[C@@H](CO)C(=O)N[C@@H](CC(=O)O)C(=O)N[C@@H](Cc2ccc(O)cc2)C(=O)N[C@@H](CCCCN)C(=O)N[C@@H](CC(=O)O)C(=O)N[C@@H](CC(=O)O)C(=O)N[C@@H](CC(=O)O)C(=O)N[C@@H](CC(=O)O)C(=O)N[C@@H](CCCCN)C(N)=O)NC(=O)[C@H](CCCNC(=N)N)NC(=O)[C@H](CC(N)=O)NC(=O)[C@H](CCCCN)NC(=O)[C@H](CCSC)NC1=O` (Ac-MCNIILYKIMKNRCGSGSDYKDDDDK-NH2; disulfide 2-14): the Kd on FGF-R1C ECD, on FGF-R3C ECD and on FGF-R4 ECD (setting [2]) was greater than 10 µM throughout.
